The first experiment has as its system NCI-H1155 cells. Kind of experiment: NSCLC cell viability, CellTiter-Glo, NCI-H1155 cells. The format is cell-based. As to conditions: Homo sapiens, NCI-H1155, 72 h, read-out: Cell viability classification (NCI-H1155). In general terms: ATP-based viability assays read luminescence as a measure of living cells.
In the case of `O=C1CCC(N2Cc3cc(C(=O)N4Cc5c(F)ccc(OC(F)(F)F)c5C4)ccc3C2=O)C(=O)N1` (stereo not shown) [Example 185, 3-(5-(4-fluoro-7-(trifluoromethoxy)isoindoline-2-carbonyl)-1-oxoisoindolin-2-yl)piperidine-2,6-dione], the IC50 fell in the range of 100 to 1000 nM.

The same experiment, now with this note: Homo sapiens; NCI-H1155 cells, CellTiter-Glo, 72 hours of treatment; read-out: Cell viability classification (NCI-H1155).
Consider `O=C1CCC(N2Cc3cc(C(=O)N4CC(F)(c5ccc(F)cc5)C4)ccc3C2=O)C(=O)N1` (stereo not shown) [Example 170, 3-(5-(3-fluoro-3-(4-fluorophenyl)azetidine-1-carbonyl)-1-oxoisoindolin-2-yl)piperidine-2,6-dione], for which the IC50 was in the range of 100 to 1000 nM. Same read-out and setting: next, `O=C1CCC(c2nc3ccc(C(=O)N4CCc5cc(Cl)ccc5C4)cc3o2)C(=O)N1` (stereo not shown) [Example 171, 3-(6-(6-chloro-1,2,3,4-tetrahydroisoquinoline-2-carbonyl)benzo[d]oxazol-2-yl)piperidine-2,6-dione]: 100 to 1000 nM; `O=C1CCC(N2Cc3cc(C(=O)N4Cc5ccc(Cl)c(F)c5C4)ccc3C2=O)C(=O)N1` (stereo not shown) [Example 172, 3-(5-(5-chloro-4-fluoroisoindoline-2-carbonyl)-1-oxoisoindolin-2-yl)piperidine-2,6-dione]: 10 to 100 nM; `N#Cc1cccc2c1CN(C(=O)c1ccc3nc(C4CCC(=O)NC4=O)oc3c1)C2` (stereo not shown) [Example 173, 2-(2-(2,6-dioxopiperidin-3-yl)benzo[d]oxazole-6-carbonyl)isoindoline-4-carbonitrile]: 100 to 1000 nM. On the same count and under the same terms, to `O=C1CCC(c2nc3ccc(C(=O)N4CCc5c(F)cc(F)cc54)cc3o2)C(=O)N1` (stereo not shown) [Example 175, 3-(6-(4,6-difluoroindoline-1-carbonyl)benzo[d]oxazol-2-yl)piperidine-2,6-dione] belongs 100 to 1000 nM. Still for that read-out and setting: to `O=C1CCC(c2nc3ccc(C(=O)N4Cc5c(F)ccc(F)c5C4)cc3o2)C(=O)N1` (stereo not shown) [Example 177, 3-(6-(4,7-difluoroisoindoline-2-carbonyl)benzo[d]oxazol-2-yl)piperidine-2,6-dione] belongs 100 to 1000 nM; to `O=C1CCC(c2nc3ccc(C(=O)N4CCc5cccc(Cl)c5C4)cc3o2)C(=O)N1` (stereo not shown) [Example 179, 3-(6-(8-chloro-1,2,3,4-tetrahydroisoquinoline-2-carbonyl)benzo[d]oxazol-2-yl)piperidine-2,6-dione], 100 to 1000 nM. For `O=C1CCC(c2nc3ccc(C(=O)N4CCc5ccc(Cl)cc5C4)cc3o2)C(=O)N1` (stereo not shown) [Example 180, 3-(6-(7-chloro-1,2,3,4-tetrahydroisoquinoline-2-carbonyl)benzo[d]oxazol-2-yl)piperidine-2,6-dione], the IC50 was greater than 1000 nM. For `O=C1CCC(c2nc3ccc(C(=O)N4CCc5c(Cl)cccc5C4)cc3o2)C(=O)N1` (stereo not shown) [Example 181, 3-(6-(5-chloro-1,2,3,4-tetrahydroisoquinoline-2-carbonyl)benzo[d]oxazol-2-yl)piperidine-2,6-dione], the IC50 is greater than 1000 nM. The same measure, in the same setting: next, `O=C1CCC(N2Cc3cc(C(=O)N4CC5(CC(C(F)(F)F)C5)C4)c(F)cc3C2=O)C(=O)N1` (stereo not shown) [Example 183, 3-(6-fluoro-1-oxo-5-(6-(trifluoromethyl)-2-azaspiro[3.3]heptane-2-carbonyl)isoindolin-2-yl)piperidine-2,6-dione]: 10 to 100 nM.

For the molecule `O=C1CCC(N2Cc3cc(C(=O)N4CC5(CCOCC5)C4)ccc3C2=O)C(=O)N1` (stereo not shown) [Example 186, 3-(1-oxo-5-(7-oxa-2-azaspiro[3.5]nonane-2-carbonyl)isoindolin-2-yl)piperidine-2,6-dione], the IC50 is greater than 1000 nM.

Consider `O=C1CCC(N2Cc3cc(C(=O)N4CC5(CCOC5)C4)ccc3C2=O)C(=O)N1` (stereo not shown) [Example 187, 3-(1-oxo-5-(6-oxa-2-azaspiro[3.4]octane-2-carbonyl)isoindolin-2-yl)piperidine-2,6-dione], for which the IC50 is greater than 1000 nM. Turning to `O=C1CCC(N2Cc3cc(C(=O)N4CC5(COC5)C4)ccc3C2=O)C(=O)N1` (stereo not shown) [Example 188, 3-(1-oxo-5-(2-oxa-6-azaspiro[3.3]heptane-6-carbonyl)isoindolin-2-yl)piperidine-2,6-dione], the IC50 was greater than 1000 nM. Turning to `O=C1CCC(N2Cc3cc(C(=O)N4CCC5(CCC(F)(F)CC5)C4)ccc3C2=O)C(=O)N1` (stereo not shown) [Example 190, 3-(5-(8,8-difluoro-2-azaspiro[4.5]decane-2-carbonyl)-1-oxoisoindolin-2-yl)piperidine-2,6-dione], the IC50 was greater than 1000 nM. As for `O=C1CCC(N2Cc3cc(C(=O)N4CC(F)(c5cccc(F)c5)C4)ccc3C2=O)C(=O)N1` (stereo not shown) [Example 191, 3-(5-(3-fluoro-3-(3-fluorophenyl)azetidine-1-carbonyl)-1-oxoisoindolin-2-yl)piperidine-2,6-dione], the IC50 is 100 to 1000 nM. The same measure, in the same setting: to `O=C1CCC(N2Cc3cc(C(=O)N4CC(c5ccc(F)cc5)C4)ccc3C2=O)C(=O)N1` (stereo not shown) [Example 192, 3-(5-(3-(4-fluorophenyl)azetidine-1-carbonyl)-1-oxoisoindolin-2-yl)piperidine-2,6-dione] belongs 100 to 1000 nM; to `O=C1CCC(N2Cc3cc(C(=O)N4CC(c5cccc(F)c5)C4)ccc3C2=O)C(=O)N1` (stereo not shown) [Example 193, 3-(5-(3-(3-fluorophenyl)azetidine-1-carbonyl)-1-oxoisoindolin-2-yl)piperidine-2,6-dione], 100 to 1000 nM. Still for that read-out and setting: to `O=C1CCC(N2Cc3cc(C(=O)N4CC(c5ccccc5F)C4)ccc3C2=O)C(=O)N1` (stereo not shown) [Example 194, 3-(5-(3-(2-fluorophenyl)azetidine-1-carbonyl)-1-oxoisoindolin-2-yl)piperidine-2,6-dione] belongs 100 to 1000 nM; to `O=C1CCC(c2nc3ccc(COC(=O)Nc4cc(OC(F)(F)F)ccc4F)cc3o2)C(=O)N1` (stereo not shown) [Example 212, (2-(2,6-dioxopiperidin-3-yl)benzo[d]oxazol-6-yl)methyl (2-fluoro-5-(trifluoromethoxy)phenyl)carbamate], 100 to 1000 nM; to `O=C1CCC(N2Cc3cc(C(=O)NC4CC5(C=C(c6ccc(OC(F)(F)F)cc6)C5)C4)ccc3C2=O)C(=O)N1` (stereo not shown) [Example 213, 2-(2,6-dioxopiperidin-3-yl)-1-oxo-N-(6-(4-(trifluoromethoxy)phenyl)spiro[3.3]hept-5-en-2-yl)isoindoline-5-carboxamide], 100 to 1000 nM. The same measure, in the same setting: next, `O=C1CCC(N2Cc3cc(C(=O)NC4CC5(C=C(c6ccc(F)cc6F)C5)C4)ccc3C2=O)C(=O)N1` (stereo not shown) [Example 214, N-(6-(2,4-difluorophenyl)spiro[3.3]hept-5-en-2-yl)-2-(2,6-dioxopiperidin-3-yl)-1-oxoisoindoline-5-carboxamide]: 100 to 1000 nM; `O=C1CCC(N2Cc3cc(C(=O)NC4CC5(C=C(c6ccc(F)c(F)c6)C5)C4)ccc3C2=O)C(=O)N1` (stereo not shown) [Example 215, N-(6-(3,4-difluorophenyl)spiro[3.3]hept-5-en-2-yl)-2-(2,6-dioxopiperidin-3-yl)-1-oxoisoindoline-5-carboxamide]: 100 to 1000 nM. Consider `N#Cc1ccc(C2=CC3(C2)CC(NC(=O)c2ccc4c(c2)CN(C2CCC(=O)NC2=O)C4=O)C3)cc1` (stereo not shown) [Example 216, N-(6-(4-cyanophenyl)spiro[3.3]hept-5-en-2-yl)-2-(2,6-dioxopiperidin-3-yl)-1-oxoisoindoline-5-carboxamide], for which the IC50 lay in the range of 100 to 1000 nM.

For the molecule `O=C1CCC(c2nc3ccc(C(=O)N4CC5(CCC(F)(F)CC5)C4)cc3o2)C(=O)N1` (stereo not shown) [Example 220, 3-(6-(7,7-difluoro-2-azaspiro[3.5]nonane-2-carbonyl)benzo[d]oxazol-2-yl)piperidine-2,6-dione], the IC50 is greater than 1000 nM. Still for that read-out and setting: to `O=C1CCC(c2nc3ccc(C(=O)N4CC5(CC=C(F)CC5)C4)cc3o2)C(=O)N1` (stereo not shown) [Example 221, 3-(6-(7-fluoro-2-azaspiro[3.5]non-6-ene-2-carbonyl)benzo[d]oxazol-2-yl)piperidine-2,6-dione] belongs 100 to 1000 nM. The same measure, in the same setting: to `O=C1CCC(N2Cc3cc(C(=O)N4CC5(CCC(C(F)(F)F)C5)C4)ccc3C2=O)C(=O)N1` (stereo not shown) [Example 222, 3-(1-oxo-5-(6-(trifluoromethyl)-2-azaspiro[3.4]octane-2-carbonyl)isoindolin-2-yl)piperidine-2,6-dione] belongs 10 to 100 nM; to `O=C1CCC(c2nc3cc(COC(=O)Nc4ccc(OC(F)(F)F)cc4F)ccc3o2)C(=O)N1` (stereo not shown) [Example 223, (2-(2,6-dioxopiperidin-3-yl)benzo[d]oxazol-5-yl)methyl (2-fluoro-4-(trifluoromethoxy)phenyl)carbamate], 100 to 1000 nM. Still for that read-out and setting: next, `O=C1CCC(c2nc3cc(COC(=O)Nc4cc(Cl)ccc4F)ccc3o2)C(=O)N1` (stereo not shown) [Example 224, (2-(2,6-dioxopiperidin-3-yl)benzo[d]oxazol-5-yl)methyl (5-chloro-2-fluorophenyl)carbamate]: 100 to 1000 nM; `O=C1CCC(N2Cc3cc(C(=O)NC4CC5(C4)CC(O)(c4ccc(F)cc4)C5)ccc3C2=O)C(=O)N1` (stereo not shown) [Example 225, 2-(2,6-dioxopiperidin-3-yl)-N-(6-(4-fluorophenyl)-6-hydroxyspiro[3.3]heptan-2-yl)-1-oxoisoindoline-5-carboxamide]: greater than 1000 nM. As to `O=C1CCC(N2Cc3cc(C(=O)N4CC5(CC(c6ccc(F)c(F)c6)C5)C4)ccc3C2=O)C(=O)N1` (stereo not shown) [Example 228, 3-(5-(6-(3,4-difluorophenyl)-2-azaspiro[3.3]heptane-2-carbonyl)-1-oxoisoindolin-2-yl)piperidine-2,6-dione], the IC50 lay in the range of 10 to 100 nM.

`O=C1CCC(N2Cc3cc(C(=O)N4CC5(CC(c6ccc(F)cc6F)C5)C4)ccc3C2=O)C(=O)N1` (stereo not shown) [Example 229, 3-(5-(6-(2,4-difluorophenyl)-2-azaspiro[3.3]heptane-2-carbonyl)-1-oxoisoindolin-2-yl)piperidine-2,6-dione]: the IC50 was 10 to 100 nM. Still for that read-out and setting: next, `N#Cc1ccc(C2CC3(C2)CN(C(=O)c2ccc4c(c2)CN(C2CCC(=O)NC2=O)C4=O)C3)cc1` (stereo not shown) [Example 232, 4-(2-(2-(2,6-dioxopiperidin-3-yl)-1-oxoisoindoline-5-carbonyl)-2-azaspiro[3.3]heptan-6-yl)benzonitrile]: 100 to 1000 nM. Still for that read-out and setting: next, `COc1ccc(C2CC3(C2)CN(C(=O)c2ccc4c(c2)CN(C2CCC(=O)NC2=O)C4=O)C3)cc1` (stereo not shown) [Example 233, 3-(5-(6-(4-methoxyphenyl)-2-azaspiro[3.3]heptane-2-carbonyl)-1-oxoisoindolin-2-yl)piperidine-2,6-dione]: greater than 1000 nM.

For the origin of these results see patent US20260285872A1, “COMPOUNDS AND METHODS FOR DEGRADING GSPT1” (priority 2023, published 2026).
